Values after ≈ are worked out from the molar mass of the structure shown. Where two headings read alike, the source gives them in different places.
Assays:
Format in all cases: cell-based
[1] = test system: S. aureus BAA 977 iErmA; assay: MIC against S. aureus BAA 977 iErmA; conditions: Staphylococcus aureus, BAA977
[2] = test system: E. coli MP-74 LptD mutant; assay: MIC against E. coli MP-74 LptD mutant; conditions: Escherichia coli
[3] = test system: E. coli ATCC 25922; assay: MIC against E. coli ATCC 25922; conditions: Escherichia coli, ATCC25922
[4] = test system: E. coli MP-9 ΔTolC; assay: MIC against E. coli MP-9 ΔTolC; conditions: Escherichia coli
[5] = test system: K. pneumoniae ATCC 10031; assay: MIC against K. pneumoniae ATCC 10031; conditions: Klebsiella pneumoniae, ATCC10031
[6] = test system: S. aureus ATCC 29213; assay: MIC against S. aureus ATCC 29213; conditions: Staphylococcus aureus
[7] = test system: E. faecalis ATCC 29212; assay: MIC against E. faecalis ATCC 29212; conditions: Enterococcus faecalis
[8] = test system: S. pyogenes ATCC 19615; assay: MIC against S. pyogenes ATCC 19615; conditions: Streptococcus pyogenes, ATCC19615; S. pyogenes ATCC 19615; read-out: MIC
[9] = test system: S. pneumoniae ATCC 49619; assay: MIC against S. pneumoniae ATCC 49619; conditions: Streptococcus pneumoniae, ATCC49619
[10] = test system: S. aureus MP-549 msr(a) USA 300; assay: MIC against S. aureus MP-549 msr(a) USA 300; conditions: Staphylococcus aureus, USA300, S. aureus MP-549 msr(a) USA 300
[11] = test system: H. influenzae ATCC 49247; assay: MIC against H. influenzae ATCC 49247; conditions: Haemophilus influenzae, ATCC49247
[12] = test system: S. pyogenes MMX 946 Macrolide-Resistant; assay: MIC against S. pyogenes MMX 946 Macrolide-Resistant; conditions: Streptococcus pyogenes; S. pyogenes MMX 946 Macrolide-Resistant (MacRes); read-out: MIC
[13] = test system: S. aureus MMX 3035 cErmA; assay: MIC against S. aureus MMX 3035 cErmA; conditions: Staphylococcus aureus, MMX3035CERMA; S. aureus MMX 3035 cErmA; read-out: MIC
[14] = test system: E. faecalis MMX 847 Macrolide-Resistant; assay: MIC against E. faecalis MMX 847 Macrolide-Resistant; conditions: Enterococcus faecalis; E. faecalis MMX 847 Macrolide-Resistant (MacRes); read-out: MIC
[15] = test system: C. difficile BAA 1805; assay: MIC against C. difficile BAA 1805; conditions: Clostridioides difficile, BAA1805
[16] = test system: S. pneumoniae MMX 3031 cMefA; assay: MIC against S. pneumoniae MMX 3031 cMefA; conditions: Streptococcus pneumoniae, MMX3031CMEFA
[17] = test system: E. coli ATCC 15922; assay: MIC against E. coli ATCC 15922; conditions: Escherichia coli, ATCC15922; E. coli ATCC 15922; read-out: MIC
[18] = ATCC29213, S. aureus ATCC 29213, read-out: MIC
[19] = S. pneumoniae ATCC 49619, read-out: MIC
[20] = E. coli ATCC 25922, read-out: MIC
[21] = H. influenzae ATCC 49247, read-out: MIC

SMILES	MIC [1] [µg/mL]	MIC [2] [µg/mL]	MIC [3] [µg/mL]	MIC [4] [µg/mL]	MIC [5] [µg/mL]	MIC [6, 18] [µg/mL]	MIC ([7]; ATCC29212) [µg/mL]	MIC [8] [µg/mL]	MIC [9, 19] [µg/mL]	MIC [3, 20] [µg/mL]	MIC [10] [µg/mL]	MIC ([7]; ATCC29212, read-out: MIC) [µg/mL]	MIC [11, 21] [µg/mL]	MIC [12] [µg/mL]	MIC [13] [µg/mL]	MIC [14] [µg/mL]	MIC [11] [µg/mL]	MIC [9] [µg/mL]	also measured
CSC1O[C@H]([C@H](NC(=O)[C@H]2NC[C@@H]3CC(c4ccc(-c5ccccc5)cc4)=CCO[C@H]32)[C@H](C)Cl)C(O)[C@@H](O)[C@H]1O (stereo partly shown) [FSA-510001]	2 (≈ 3.39 µM)	8 (≈ 13.6 µM)	> 64	> 64	> 64	2 (≈ 3.39 µM)	8 (≈ 13.6 µM)	2 (≈ 3.39 µM)	4 (≈ 6.79 µM)	–	–	–	–	–	–	–	–	–	–
CSC1O[C@H]([C@H](NC(=O)[C@H]2NC[C@@H]3C=C(c4cc(F)cc(F)c4)CCO[C@@H]23)[C@H](C)Cl)C(O)[C@@H](O)[C@H]1O (stereo partly shown) [FSA-511074]	2 (≈ 3.64 µM)	–	–	–	–	2 (≈ 3.64 µM)	–	0.5 (≈ 0.911 µM)	–	> 64	1 (≈ 1.82 µM)	4 (≈ 7.29 µM)	> 64	> 64	> 64	> 64	–	–	–
CNC1CCO[C@@H]2[C@H](CN[C@@H]2C(=O)N[C@H]([C@H](C)Cl)[C@H]2OC(SC)[C@H](O)[C@H](O)C2O)C1 (stereo partly shown) [FSA-510065]	> 64	> 64	> 64	> 64	> 64	–	> 64	–	–	–	> 64	–	–	–	–	–	> 64	> 64	MIC [15]: > 64 µg/mL; MIC ([6]; ATCC29213): > 64 µg/mL
CSC1O[C@H]([C@H](NC(=O)[C@H]2NC[C@@H]3CC(NCc4cccc(F)c4)CCO[C@H]32)[C@H](C)Cl)C(O)[C@@H](O)[C@H]1O (stereo partly shown) [FSA-510073]	–	> 64	> 64	> 64	> 64	–	> 64	2 (≈ 3.56 µM)	8 (≈ 14.2 µM)	–	–	–	–	–	–	–	> 64	–	–
CSC1O[C@H]([C@H](NC(=O)[C@H]2NC[C@@H]3C=C(c4ccc(F)cc4F)CCO[C@@H]23)[C@H](C)Cl)C(O)[C@@H](O)[C@H]1O (stereo partly shown) [FSA-511072]	1 (≈ 1.82 µM)	–	–	–	–	1 (≈ 1.82 µM)	–	0.95 (≈ 1.73 µM)	–	> 64	1 (≈ 1.82 µM)	4 (≈ 7.29 µM)	> 64	> 64	> 64	> 64	–	–	–
CSC1O[C@H]([C@H](NC(=O)[C@H]2NC[C@@H]3CC(N)CCO[C@H]32)[C@H](C)Cl)C(O)[C@@H](O)[C@H]1O (stereo partly shown) [FSA-510012]	> 64	> 64	> 64	> 64	> 64	–	> 64	–	–	–	> 64	–	–	–	–	–	> 64	> 64	MIC [15]: > 64 µg/mL; MIC ([6]; ATCC29213): > 64 µg/mL
CSC1O[C@H]([C@H](NC(=O)[C@H]2NC[C@@H]3C[C@@H](C4CCNCC4)CCO[C@H]32)[C@H](C)Cl)C(O)[C@@H](O)[C@H]1O (stereo partly shown) [FSA-512011]	–	> 256	> 256	> 256	–	8 (≈ 15.3 µM)	–	4 (≈ 7.66 µM)	1 (≈ 1.92 µM)	–	8 (≈ 15.3 µM)	–	–	–	–	–	> 256	–	–
CSC1O[C@H]([C@H](NC(=O)[C@H]2NC[C@@H]3C=C(c4cccc(F)c4)CCO[C@@H]23)[C@H](C)Cl)C(O)[C@@H](O)[C@H]1O (stereo partly shown) [FSA-511071]	2 (≈ 3.77 µM)	–	–	–	–	2 (≈ 3.77 µM)	–	0.5 (≈ 0.942 µM)	–	> 64	1 (≈ 1.88 µM)	4 (≈ 7.53 µM)	> 64	> 64	> 64	> 64	–	–	MIC [16]: 0.5 µg/mL (≈ 0.942 µM)
CSC1O[C@H]([C@H](NC(=O)[C@H]2NC[C@@H]3CC(c4ccc(C)cc4)CCO[C@H]32)[C@H](C)Cl)C(O)[C@@H](O)[C@H]1O (stereo partly shown) [FSA-511044]	–	–	–	–	–	0.23 (≈ 0.435 µM)	–	≤ 0.06	–	–	0.5 (≈ 0.945 µM)	2 (≈ 3.78 µM)	–	–	–	–	–	0.5 (≈ 0.945 µM)	MIC [17]: > 64 µg/mL
CSC1O[C@H]([C@H](NC(=O)[C@H]2NC[C@@H]3C=C(c4ccccc4F)CCO[C@@H]23)[C@H](C)Cl)C(O)[C@@H](O)[C@H]1O (stereo partly shown) [FSA-511073]	1 (≈ 1.88 µM)	–	–	–	–	1 (≈ 1.88 µM)	–	–	–	> 64	1 (≈ 1.88 µM)	4 (≈ 7.53 µM)	> 64	> 64	> 64	> 64	–	–	MIC [16]: 12 µg/mL (≈ 22.6 µM)
